Holding throughout (test): NCI-60 cell line screen, 48 h
Test [1] concerns TK-10 renal.
In test [2] the test system is MCF7 breast.
For test [3], the system named is A549 NSCLC.
Test [4] has as its system LOX IMVI melanoma.
Test [5] relates to EKVX NSCLC.
The test system of test [6] is UACC-257 melanoma.
Test [7] relates to RPMI-8226 leukemia.
The test system of test [8] is MDA-N.

Each structure is given as a SMILES string.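 Compound exposure: 48 hours, 5 concentrations, 96-well plates. The concentration for 50% growth inhibition is given as GI50. TGI is the concentration that stops growth completely.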 Bounds are passed on as bounds.

As to `COc1ccc(/C=C2\CN(C(=O)CCN3CCC(=NO)CC3)C/C(=C\c3ccc(OC)cc3)C2=O)cc1`, the GI50 was 2.86 µM in test [1]; 0.619 µM in test [2]; 3.28 µM in test [3]; 1.47 µM in test [4]; 4.04 µM in test [5]; 2.65 µM in test [6]. Also, the GI50 in test [7] is 0.648 µM. For the same compound, the TGI came to 10.4 µM in test [1]; 4.86 µM in test [2]; 11.7 µM in test [3]; 2.96 µM in test [4]; 17.6 µM in test [5]; 7.57 µM in test [6]. For the same compound, in test [7], the TGI is 3.79 µM.

Take `CC(=O)Oc1ccccc1[C@H]1CC(=O)C[C@H](c2ccccc2OC(C)=O)C12C(=O)c1ccccc1C2=O`: the figures for the TGI in test [8] and in test [7] were 47.3 µM and over 100 µM, respectively.

Regarding `O=C(c1ccccc1)c1nn(-c2ccc(Cl)cc2)c2nc3nc(-c4ccccc4)cc(=O)n3nc12`, the GI50 in test [1] was 31.8 µM; in test [2], 40.9 µM; in test [3], 66.3 µM; in test [4] it was 28.1 µM; in test [5], 30.3 µM; in test [6], 70.7 µM. Further, the GI50 in test [7] is 28.8 µM. Moreover, the TGI in test [1] was 85.6 µM; in test [2] it was over 100 µM; in test [3], over 100 µM; in test [4] it was over 100 µM; in test [5], over 100 µM; in test [6] it was over 100 µM. Also, the TGI in test [7] is over 100 µM.

The values are drawn from PubChem BioAssay (NCI).
